Test results published in the supplement of paper PMC10307832.

How the values were obtained:
Assay in all cases: relative viability (nuclei count vs DMSO), 5 days (fraction); higher = more cells survive
NCI-H460 = tested on: NCI-H460
Outline: (§1)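 Lung cancer cell lines, seeded in 1536-well plates, were treated the following day by pin tool with a single drug or with five library-drug doses (not always all listed) in √10 steps on top of a fixed anchor-drug dose. Cells were fixed and nuclei stained in one step after 5 days, and nuclei were counted. Relative viability is the nuclei count for treated wells divided by that for vehicle wells, reported as medians of duplicate plates.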

NCI-H1734 = tested on: NCI-H1734
Outline: as §1

NCI-H3122 = tested on: NCI-H3122
Outline: as §1

NCI-H838 = tested on: NCI-H838
Outline: as §1

NCI-H2347 = tested on: NCI-H2347
Outline: as §1

NCI-H650 = tested on: NCI-H650
Outline: as §1

NCI-H520 = tested on: NCI-H520
Outline: as §1

NCI-H596 = tested on: NCI-H596
Outline: as §1

EKVX = tested on: EKVX
Outline: as §1

NCI-H441 = tested on: NCI-H441
Outline: as §1

H3255 = tested on: H3255
Outline: as §1

SW 1573 = tested on: SW 1573
Outline: as §1

NCI-H1755 = tested on: NCI-H1755
Outline: as §1

NCI-H2085 = tested on: NCI-H2085
Outline: as §1

NCI-H1355 = tested on: NCI-H1355
Outline: as §1

NCI-H1650 = tested on: NCI-H1650
Outline: as §1

NCI-H2228 = tested on: NCI-H2228
Outline: as §1

A-427 = tested on: A-427
Outline: as §1

ChaGo-K-1 = tested on: ChaGo-K-1
Outline: as §1

NCI-H1666 = tested on: NCI-H1666
Outline: as §1

NCI-H322M = tested on: NCI-H322M
Outline: as §1

CCCCCCCCCCCC1=C(O)C(=O)C=C(O)C1=O [Embelin] + CC(C)C[C@H](NC(=O)[C@H](Cc1ccccc1)NC(=O)c1cnccn1)B(O)O [Bortezomib] (partner 0.002 µM)
relative viability (NCI-H460; first compound 0.08 µM): 0.961 | relative viability (NCI-H460; first compound 0.8 µM): 1.27 | relative viability (NCI-H460; first compound 2.53 µM): 1.38 | relative viability (NCI-H460; first compound 8 µM): 1.19 | relative viability (NCI-H1734; first compound 0.08 µM): 0.882 | relative viability (NCI-H1734; first compound 0.8 µM): 1.35 | relative viability (NCI-H1734; first compound 2.53 µM): 1.14 | relative viability (NCI-H1734; first compound 8 µM): 0.944 | relative viability (NCI-H3122; first compound 0.08 µM): 0.978 | relative viability (NCI-H3122; first compound 0.8 µM): 1.03 | relative viability (NCI-H3122; first compound 2.53 µM): 0.916 | relative viability (NCI-H3122; first compound 8 µM): 0.992 | relative viability (NCI-H838; first compound 0.08 µM): 1.38 | relative viability (NCI-H838; first compound 0.8 µM): 1.12 | relative viability (NCI-H838; first compound 2.53 µM): 0.72 | relative viability (NCI-H838; first compound 8 µM): 0.936 | relative viability (NCI-H2347; first compound 0.08 µM): 1.15 | relative viability (NCI-H2347; first compound 0.8 µM): 1.1 | relative viability (NCI-H2347; first compound 2.53 µM): 1.15 | relative viability (NCI-H2347; first compound 8 µM): 1.05 | relative viability (NCI-H650; first compound 0.08 µM): 0.64 | relative viability (NCI-H650; first compound 0.8 µM): 1 | relative viability (NCI-H650; first compound 2.53 µM): 0.668 | relative viability (NCI-H650; first compound 8 µM): 0.453 | relative viability (NCI-H520; first compound 0.08 µM): 0.848 | relative viability (NCI-H520; first compound 0.8 µM): 0.255 | relative viability (NCI-H520; first compound 2.53 µM): 0.668 | relative viability (NCI-H520; first compound 8 µM): 0.511 | relative viability (NCI-H596; first compound 0.08 µM): 0.955 | relative viability (NCI-H596; first compound 0.8 µM): 1.17 | relative viability (NCI-H596; first compound 2.53 µM): 1.3 | relative viability (NCI-H596; first compound 8 µM): 0.87 | relative viability (EKVX; first compound 0.08 µM): 0.976 | relative viability (EKVX; first compound 0.8 µM): 0.936 | relative viability (EKVX; first compound 2.53 µM): 1.14 | relative viability (EKVX; first compound 8 µM): 1.13 | relative viability (NCI-H441; first compound 0.08 µM): 0.448 | relative viability (NCI-H441; first compound 2.53 µM): 0.251 | relative viability (NCI-H441; first compound 8 µM): 0.475 | relative viability (H3255; first compound 0.08 µM): 0.962 | relative viability (H3255; first compound 0.8 µM): 0.975 | relative viability (H3255; first compound 2.53 µM): 0.702 | relative viability (H3255; first compound 8 µM): 0.889 | relative viability (SW 1573; first compound 0.08 µM): 1.26 | relative viability (SW 1573; first compound 0.8 µM): 1.29 | relative viability (SW 1573; first compound 2.53 µM): 1.2 | relative viability (SW 1573; first compound 8 µM): 1.27 | relative viability (NCI-H1755; first compound 0.08 µM): 0.987 | relative viability (NCI-H1755; first compound 0.8 µM): 1.07 | relative viability (NCI-H1755; first compound 2.53 µM): 0.971 | relative viability (NCI-H1755; first compound 8 µM): 0.917 | relative viability (NCI-H2085; first compound 0.08 µM): 0.989 | relative viability (NCI-H2085; first compound 0.8 µM): 1.07 | relative viability (NCI-H2085; first compound 2.53 µM): 1.07 | relative viability (NCI-H2085; first compound 8 µM): 1.03 | relative viability (NCI-H1355; first compound 0.08 µM): 1.16 | relative viability (NCI-H1355; first compound 0.8 µM): 1.24 | relative viability (NCI-H1355; first compound 2.53 µM): 1.21 | relative viability (NCI-H1355; first compound 8 µM): 1.02 | relative viability (NCI-H1650; first compound 0.08 µM): 0.191 | relative viability (NCI-H1650; first compound 0.8 µM): 0.189 | relative viability (NCI-H1650; first compound 2.53 µM): 0.203 | relative viability (NCI-H1650; first compound 8 µM): 0.213 | relative viability (NCI-H2228; first compound 0.08 µM): 0.939 | relative viability (NCI-H2228; first compound 0.8 µM): 1.03 | relative viability (NCI-H2228; first compound 2.53 µM): 1.29 | relative viability (NCI-H2228; first compound 8 µM): 1.26 | relative viability (A-427; first compound 0.08 µM): 1.05 | relative viability (A-427; first compound 0.8 µM): 1.11 | relative viability (A-427; first compound 2.53 µM): 0.978 | relative viability (A-427; first compound 8 µM): 0.904 | relative viability (ChaGo-K-1; first compound 0.08 µM): 0.988 | relative viability (ChaGo-K-1; first compound 0.8 µM): 1.37 | relative viability (ChaGo-K-1; first compound 2.53 µM): 0.946 | relative viability (ChaGo-K-1; first compound 8 µM): 0.793 | relative viability (NCI-H1666; first compound 0.08 µM): 0.655 | relative viability (NCI-H1666; first compound 0.8 µM): 1.05 | relative viability (NCI-H1666; first compound 2.53 µM): 0.922 | relative viability (NCI-H1666; first compound 8 µM): 0.829 | relative viability (NCI-H322M; first compound 0.08 µM): 1.21 | relative viability (NCI-H322M; first compound 0.8 µM): 1.34 | relative viability (NCI-H322M; first compound 2.53 µM): 1.44 | relative viability (NCI-H322M; first compound 8 µM): 1.29
